Reference: PubChem BioAssay (NCI)
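48-hour exposure; five concentrations; linearly interpolated endpoints. The concentration for 50% growth inhibition is given as GI50. The concentration for full growth arrest is given as TGI.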

How the values were obtained:
Assay in all cases: growth of human tumour cells (NCI), 48 h
A549 NSCLC = tested on: A549 NSCLC
BT-549 breast = tested on: BT-549 breast
CAKI-1 renal = tested on: CAKI-1 renal
HCC-2998 colon = tested on: HCC-2998 colon
KM12 colon = tested on: KM12 colon
NCI/ADR-RES ovarian = tested on: NCI/ADR-RES ovarian
SF-268 CNS = tested on: SF-268 CNS
TK-10 renal = tested on: TK-10 renal
OVCAR-4 ovarian = tested on: OVCAR-4 ovarian
NCI-H460 lung = tested on: NCI-H460 lung

SMILES	TGI (A549 NSCLC)	TGI (BT-549 breast)	TGI (CAKI-1 renal)	TGI (HCC-2998 colon)	TGI (KM12 colon)	TGI (NCI/ADR-RES ovarian)	TGI (SF-268 CNS)	TGI (TK-10 renal)	TGI (OVCAR-4 ovarian)	TGI (NCI-H460 lung)	GI50 (A549 NSCLC)	GI50 (BT-549 breast)	GI50 (CAKI-1 renal)	GI50 (HCC-2998 colon)	GI50 (KM12 colon)	GI50 (NCI/ADR-RES ovarian)	GI50 (OVCAR-4 ovarian)	GI50 (TK-10 renal)	GI50 (NCI-H460 lung)	GI50 (SF-268 CNS)
COc1ccc2c(c1)CCCN1CCc3cc(OC)c(OC)cc3C21 (stereo not drawn)	> 100 µM	43.2 µM	> 100 µM	> 100 µM	> 100 µM	56 µM	> 100 µM	> 100 µM	–	–	–	–	–	–	–	–	–	–	–	–
O=S(=O)(O)c1ccc2c(N=Nc3ccccc3Cl)c(O)ccc2c1	> 100 µM	> 100 µM	> 100 µM	–	> 100 µM	> 100 µM	> 100 µM	> 100 µM	> 100 µM	–	–	–	–	–	–	–	–	–	–	–
COC(OC)(c1ccccc1)C(I)I	43.6 µM	23.1 µM	24.1 µM	> 58.3 µM	40.1 µM	> 59.7 µM	46.1 µM	26.2 µM	27.4 µM	37.7 µM	–	–	–	–	–	–	–	–	–	–
Cc1ccc([N+](=O)[O-])cc1S(=O)(=O)Nc1ccc(C2=NNC(c3cccs3)C2)cc1 (stereo not drawn)	> 100 µM	83.8 µM	> 100 µM	> 100 µM	76.1 µM	94.6 µM	> 100 µM	–	> 100 µM	> 100 µM	–	–	–	–	–	–	–	–	–	–
NC12CC3CC4C1CC1CC2C(C3)C4(N)C1	> 100 µM	> 100 µM	> 100 µM	–	> 100 µM	> 100 µM	> 100 µM	> 100 µM	> 100 µM	> 100 µM	–	–	–	–	–	–	–	–	–	–
CCOC(=O)c1cc(=O)oc2c1N(C)c1ncccc1N2	> 100 µM	> 100 µM	> 100 µM	> 100 µM	> 100 µM	> 100 µM	> 100 µM	> 100 µM	> 100 µM	> 100 µM	–	–	–	–	–	–	–	–	–	–
CSc1nc(O)c(/C=C2\C=Nc3ccccc32)[nH]1	> 100 µM	> 100 µM	–	90.6 µM	–	> 100 µM	> 100 µM	> 100 µM	> 100 µM	> 100 µM	–	–	–	–	–	–	–	–	–	–
O=C1CCCCC[C@]12SC[C@H]1CON=C12	> 100 µM	> 100 µM	58 µM	> 100 µM	> 100 µM	83.4 µM	–	> 100 µM	> 100 µM	> 100 µM	–	–	–	–	–	–	–	–	–	–
CSc1nncc2[nH]cnc12	> 100 µM	> 100 µM	> 100 µM	–	> 100 µM	> 100 µM	> 100 µM	> 100 µM	–	> 100 µM	–	–	–	–	–	–	–	–	–	–
CCOC(=O)c1c(C)[nH]c(/C=C2\N=C(c3ccc[nH]3)C=C2OC)c1C	1.28 µM	1.48 µM	0.795 µM	1.18 µM	1.32 µM	3.45 µM	–	1.75 µM	2.81 µM	–	0.0457 µM	0.041 µM	0.0461 µM	0.0497 µM	0.015 µM	0.0457 µM	0.135 µM	0.0307 µM	–	–
CC[C@@]1(O)C(=O)OCc2c1cc1n(c2=O)Cc2c-1nc1ccccc1c2/C=N\NC(=O)C(N)Cc1cnc[nH]1 (stereo partly drawn)	> 100 µM	> 100 µM	3.21 µM	> 67.5 µM	> 28.7 µM	–	> 25.8 µM	> 100 µM	> 100 µM	4.8 µM	–	–	–	–	–	–	–	–	–	–
Cc1ccc(/C=N/NC2=NCCN2)s1	> 100 µM	> 100 µM	> 100 µM	> 100 µM	> 100 µM	> 100 µM	> 100 µM	> 100 µM	> 100 µM	–	–	–	–	–	–	–	–	–	–	–
N#C[C@@]12CCCC(=O)[C@@H]1[C@H]1CCC[C@H]12	37 µM	39.2 µM	31.4 µM	31.7 µM	27.4 µM	59.4 µM	–	35.3 µM	58.6 µM	32.8 µM	–	–	–	–	–	–	–	–	–	–
CC(C)(C)OC(=O)NC(Cc1ccc(OCc2ccccc2)cn1)C(=O)N1CCSCC1 (stereo not drawn)	> 100 µM	71.7 µM	> 100 µM	> 100 µM	> 100 µM	94.5 µM	> 100 µM	> 100 µM	–	> 100 µM	–	–	–	–	–	–	–	–	–	–
O=C1OC[C@@H]2Cc3c([nH]c4ccccc34)[C@@H](c3cc(O)c(O)c(O)c3)N12	> 100 µM	–	> 100 µM	> 100 µM	> 100 µM	72.3 µM	> 100 µM	> 100 µM	26.1 µM	> 100 µM	–	–	–	–	–	–	–	–	–	–
COC(=O)c1cc2c3c(cc(O)c2[nH]1)N(C(=O)C1Cc2cc(OC)c(OC)c(OC)c2N1)CC3CCl (stereo not drawn)	1.36 µM	< 0.01 µM	–	0.113 µM	0.0142 µM	> 100 µM	0.646 µM	< 0.01 µM	0.845 µM	0.175 µM	< 0.01 µM	< 0.01 µM	–	< 0.01 µM	< 0.01 µM	< 0.01 µM	< 0.01 µM	< 0.01 µM	< 0.01 µM	< 0.01 µM
CCOC(=O)C(C)(C)/C=C\C(Cl)=C(Cl)Cl	> 100 µM	–	> 100 µM	> 100 µM	> 100 µM	> 100 µM	> 100 µM	> 100 µM	–	–	–	–	–	–	–	–	–	–	–	–
Nc1nc(N)c2nc(-c3ccco3)cnc2n1	> 100 µM	–	> 100 µM	> 100 µM	> 100 µM	–	> 100 µM	> 100 µM	–	> 100 µM	–	–	–	–	–	–	–	–	–	–
CCc1n[nH]c(=O)n1NC(=O)c1ccccc1C(=O)O	> 100 µM	> 100 µM	–	> 100 µM	> 100 µM	> 100 µM	> 100 µM	> 100 µM	> 100 µM	–	–	–	–	–	–	–	–	–	–	–
COC(=O)[C@H](Cc1ccccc1)NP(=O)(O)OCC1OC(n2cc(C)c(=O)[nH]c2=O)CC1N=[N+]=[N-] (stereo partly drawn)	> 100 µM	–	> 100 µM	> 100 µM	> 100 µM	> 100 µM	> 100 µM	> 100 µM	> 100 µM	> 100 µM	–	–	–	–	–	–	–	–	–	–
CC(C)CC1[C@@H](OCc2ccccc2)COS(=O)(=O)N1Cc1ccccc1 (stereo partly drawn)	> 100 µM	> 100 µM	> 100 µM	–	> 100 µM	> 100 µM	> 100 µM	> 100 µM	> 100 µM	> 100 µM	–	–	–	–	–	–	–	–	–	–
